{"source": "patent US8492521B2", "about": "“Oxidative stress responsive apoptosis inducing protein eIF5A” (priority 2008, dated 2013)", "key": {"cardiac myocytes [1]": {"tested_on": "cardiac myocytes", "experiment": "Effect of PARP-1 inhibitor and caspase inhibitor on apoptosis of cardiac myocytes induced by recombinant eIF5A (RCP) (TUNEL)", "type": "cell-based, rat", "conditions": "inhibitor added 1 hour before recombinant eIF5A (RCP), 3-aminobenzamide 2 mM, Z-VAD.fmk 100 μM, TUNEL at 72 hours"}, "[2]": {"tested_on": "cultured cardiac myocytes", "experiment": "Induction of apoptosis of cultured cardiac myocytes by recombinant eIF5A proteins (TUNEL / cardiac myosin double staining)", "type": "cell-based, rat", "conditions": "recombinant protein 10 μg/mL"}, "[3]": {"experiment": "Isoelectric point by two-dimensional gel electrophoresis and Western blotting", "type": "physicochemical", "conditions": "two-dimensional gel electrophoresis, tagged recombinant protein", "procedure": "Quail muscle cells were transfected with eIF5A-myc-His vector and myc- and His-tagged recombinant eIF5A protein was collected from the cytoplasm of the transfected cells. Similarly, quail muscle cells were trasfected with the eIF5A-FLAG-His vector, the cells were incubated in hypoxia/reoxygenation-conditioned PBS (RCP), and a FLAG- and His-tagged recombinant eIF5A protein was collected from the culture supernatant. The proteins were treated with Ni-NTA Purification System (Invitrogen), and after that gel filtration was performed with phosphate buffer containing 0.15 M NaCl (pH 7.4) using Superdex 200™ 10-300GL (GE Healthcare, 1.0×30 cm, bed capacity 24 mL) to purify the myc- and FLAG-tagged recombinant eIF5A proteins. The first dimensional isoelectric focusing was performed with Immobiline DryStrip (pH 4 to 7, GE Healthcare) which had been allowed to swell overnight with a sample dissolved in 7 M urea, 2 M thiourea, 4% CHAPS, 65 mM dithioerythritol [DTE], 2% IPG buffer pH 4 to 7 (GE Healthcare) and bromophenol blue [BPB]. The electrophoresis was performed at a voltage of 30 V for 7 hours, at 60V for 7 hours, at 60 to 200 V for 30 min, at 200 to 500 V for 30 min, at 500 to 1000 V for 30 min, at 1000 to 8000 V for 30 min, and at 8000 V for 2 hours (19.4 kVh in total). The second dimensional SDS-PAGE was performed with a gel (concentrated gel 4% acrylamide, 2.6% piperazine diacrylamide [PDA], separating gel 12% acrylamide, 2.6% PDA) and the electrophoresis was performed at 12 mA for 2 hours. The gel was transferred to a PVDF membrane, and then the myc- and FLAG-tagged recombinant eIF5A proteins were analyzed by Western blotting. First, the proteins were analyzed using anti-myc monoclonal antibody (Invitrogen), biotinylated anti-mouse IgG antibody and Vectastain ABC-AP Kit (Vector) and then detected with alkaline phosphatase and chemiluminescence. Then, the proteins were analyzed using anti-FLAG monoclonal antibody (M2, Sigma) and horseradish peroxidase (HRP)-labeled anti-mouse IgG antibody and detected with Konica Immunostain HRP-1000 Kit (Konica Corporation).\n(1) As thioredoxin has been known to act as antioxidant by reducing other proteins and play a protective role against oxidative stress-induced cell injury, eIF5A was considered to be a candidate of an apoptosis inducing humoral factor. eIF5A is the only protein known to contain a unique amino acid hypusine, which is formed post-translationally by two-steps of an enzymatic reaction. eIF5A has been known to be localized mainly in the cytoplasm under normal conditions where hypusinated eIF5A facilitates translation of mRNAs involved in cell proliferation. However, no study to date has reported that eIF5A can be released extracellularly and act as an apoptosis-inducing factor. To confirm that eIF5A is actually released from cardiac myocytes in response to hypoxia/reoxygenation and the released eIF5A can induce apoptosis of cardiac myocytes, quail muscle cells (CRL-1962, ATCC) were transfected with an expression vector containing the FLAG- and His-tagged human eIF5A gene, incubated with hypoxic PBS, and then incubated with normoxic PBS. The reoxygenation-conditioned PBS (RCP) was collected, concentrated, and purified using Ni-NTA Purification System (Invitrogen), and recombinant protein ([RCP] re-eIF5A) was extracted by gel filtration. (2) Similarly, recombinant human eIF5A ([cytosolic] re-eIF5A) was extracted from cytosolic fractions of the untreated transfected cells. (3) After these recombinant eIF5A proteins were separated by two-dimensional electrophoresis, the resultant was analyzed by Western blotting with anti-FLAG M2 mAb (Sigma) (FIG. 2b). […] Specifically, spots having higher pI values, such as hypusinated eIF5A (spots B and B′ in FIG. 2b), and spots having lower pI values, such as unhypusinated eIF5A (spots A and A′ in FIG. 2b) were identified. There was no detectable spots of deoxyhypusinated intermediate (references Taylor, C. A., et al. Exp. Cell Res. 313, 437-449). […]"}, "Hela cells": {"tested_on": "Hela cells", "experiment": "Apoptosis induction by recombinant eIF5A (TUNEL), HeLa cells", "type": "cell-based, human", "conditions": "10 μg/ml, 30 to 36 hours", "procedure": "(§1) Quail muscle cells (ATCC; CRL-1962), HeLa cells, human hepatocellular carcinoma cells (ATCC; HB-8064), and human glioblastoma cells (ATCC; CRL-1690) were incubated on a culture slide (BD Falcon) until they were confluent. These cells were treated with a recombinant eIF5A (10 μg/ml) for a predetermined time and fixed. Terminal deoxynucleotidyl transferase nick-end-labeled (TUNEL) staining was performed in situ with an Apoptosis Detection Kit (Takara Bio Inc.)."}, "[4]": {"tested_on": "cultured cardiac myocytes", "experiment": "Activation of caspase-3 (Western blot)", "type": "cell-based, rat", "conditions": "peak at 48 hours"}, "cardiac myocytes [5]": {"tested_on": "cardiac myocytes", "experiment": "Electron microscopy of nuclear chromatin in cardiac myocytes", "type": "cell-based, rat", "procedure": "The cardiac myocytes were treated with recombinant eIF5A for a predetermined period. The cells were fixed in 2% glutaraldehyde, postfixed in 2% osmium tetraoxide, dehydrated in ethanol, and embedded in a resin. Ultrathin section were prepared, stained with uranyl acetate and lead citrate, and examined with an electron microscope (H-7000, HITACHI, Japan)."}, "[6]": {"tested_on": "cultured cardiac myocytes", "experiment": "Release of cytochrome c from mitochondria (Western blot of cytosolic fraction)", "type": "cell-based, rat", "conditions": "peak at 48 hours", "procedure": "Cultured cardiac myocytes were treated with a recombinant eIF5A for a predetermined time. Nucleic, mitochondrial, and cytosolic fraction of the cells were prepared as described in Non Patent Literatures 1 and 2. Briefly, 3×10^6 cells were washed in PBS, and suspended in 250 μl of a lysis buffer (250 mM sucrose, 50 mM Pipes/KOH, pH7.4, 50 mM KCl, 5 mM EGTA, 2 mM MgCl2, 1 mM DTT, and 1 mM PMSF). After 30 min on ice, the cells were lysed with 40 strokes using pestle B in a Dounce homogenizer, and centrifuged at 80 g for 10 min. The pellets were collected as the nucleic fraction. Then, the supernatants were prepared from cell lysates by centrifugation at 20,000 g for 20 min. The pellets were collected as the mitochondrial fraction, and the supernatants were regarded as the cytosolic fraction. The nucleic, mitochondrial, and cytosolic fractions were subjected to Western blot analysis with rabbit anti-AIF mAb (E20; Epitomics Inc., CA, USA) or mouse anti-cytochrome c mAb (7H, 8.2; C12; Lab Vision Corp., CA, USA). The antibody-antigen complexes were developed with a chemiluminescence system using alkalinephosphatase (New England Biolabs, Inc.)."}, "[7]": {"tested_on": "human hepatocellular carcinoma cells (ATCC; HB-8064)", "experiment": "Apoptosis induction by recombinant eIF5A (TUNEL), hepatocellular carcinoma cells", "type": "cell-based", "conditions": "10 μg/ml, 30 to 36 hours", "procedure": "as §1"}, "[8]": {"tested_on": "Quail muscle cells (ATCC; CRL-1962)", "experiment": "Apoptosis induction by recombinant eIF5A (TUNEL), quail muscle cells", "type": "cell-based", "conditions": "10 μg/ml, normal cells, up to 72 hours", "procedure": "as §1"}, "[9]": {"tested_on": "cultured cardiac myocytes", "experiment": "Subcellular translocation of apoptosis-inducing factor (AIF) in cultured cardiac myocytes", "type": "cell-based, rat", "conditions": "double staining for AIF and Hoechst 33342", "procedure": "Tyramide Signal Amplification (TSA) technology was used for fluorescence (TSA™ Biotin System, NEN Life Science Products, PerkinElmer; according to the manufacture's instruction). Cardiac myocytes were treated with a recombinant eIF5A (RCP) for a predetermined time and fixed with 4% paraformaldehyde in PBS for 15 min. The cells were washed with PBS and then incubated with rabbit anti-AIF mAb (E20; Epitomics Inc.) for 1 hour. The cells were washed, then incubated with biotinylated anti-rabbit IgG antibody (Chemicon International, Inc.) for 1 hour, washed, and incubated with streptavidin-horseradish peroxidase (Vector) for 30 min. The cells were washed in TNT buffer (0.1 M Tris-HCl, pH 7.5, 0.15 M NaCl, 0.05% Tween 20) and then incubated with biotinylated-tyramide for appropriate time (3 to 10 min). The cells were washed in TNT buffer and then incubated with FITC-labeled avidin-D (Vector) for 30 min. Nuclei were stained with 1 μg·mL^−1 Hoechst 33342 (DOJINDO Laboratories, Kumamoto, Japan). Confocal laser microscopy was performed on LSM510 Laser Scanning Microscope (Zeiss)."}, "[10]": {"tested_on": "cultured cardiac myocytes", "experiment": "Annexin V staining of cultured cardiac myocytes", "type": "cell-based, rat", "procedure": "Cardiac myocytes were treated with a recombinant eIF5A (RCP) for a predetermined time. The cells were incubated with biotinylated-annexin V in 1× binding buffer (Annexin V-Biotin Apoptosis Detection Kit, BioVision Inc.) for 5 min and then fixed with 2% paraformaldehyde in PBS for 15 min. After washing in PBS, the cells were incubated with streptavidin-horseradish peroxidase (Vector) for 30 min. The subsequent procedures for immunofluorescence by TSA technology were the same as for AIF. To distinguish cardiac myocytes from non-muscle cells, cells were further incubated with mouse anti-cardiac myosin (clone CMA19) mAb (Non Patent Literature 1), followed by incubation with tetramethyl rhodamine isothiocyanate (TRITC)-conjugated anti-mouse IgG antibody, and then photographed in a fluorescence microscope."}, "[11]": {"tested_on": "human glioblastoma cells (ATCC; CRL-1690)", "experiment": "Apoptosis induction by recombinant eIF5A (TUNEL), glioblastoma cells", "type": "cell-based", "conditions": "10 μg/ml, 30 to 36 hours", "procedure": "as §1"}}, "note": "Where a SMILES comes first, the peptide text is derived from it. The star is where a group is joined. Cbz = O=C(OCc1ccccc1)*; CH2F = FC*", "data": [{"molecule": "NC(=O)c1cccc(N)c1", "note": "[3-aminobenzamide]", "values": [{"measurement": "inhibition at 2000 µM", "setting": "cardiac myocytes [1]; Rattus norvegicus, read-out: inhibition of apoptosis induction by recombinant eIF5A (RCP)", "value": "~30", "unit": "%"}]}, {"molecule": "COC(=O)C[C@H](NC(=O)[C@H](C)NC(=O)[C@@H](NC(=O)OCc1ccccc1)C(C)C)C(=O)CF", "note": "[Z-VAD.fmk] (Cbz-Val-Ala-Asp(OMe)-CH2F)", "values": [{"measurement": "inhibition of apoptosis induction by recombinant eIF5A (RCP)", "setting": "cardiac myocytes [1]", "value": "~70", "unit": "%"}]}, {"molecule": "cytosolic (mostly unhypusinated) eIF5A: recombinant human eIF5A extracted from cytosolic fractions of untreated transfected cells [reference compound]", "values": [{"measurement": "induction of apoptosis of cultured cardiac myocytes (TUNEL and cardiac myosin double staining)", "setting": "[2]", "value": "almost no cardiac myocytes underwent apoptosis"}]}, {"molecule": "cytosolic hypusinated eIF5A: hypusinated form of conventionally known cytosolic eIF5A, spot B in two-dimensional electrophoresis [reference compound]", "values": [{"measurement": "isoelectric point", "setting": "[3]", "value": "approx. 5.5"}, {"measurement": "isoelectric point", "setting": "[3]; listed as spot B", "value": 5.5}]}, {"molecule": "cytosolic unhypusinated eIF5A: unhypusinated form of conventionally known cytosolic eIF5A, spot A in two-dimensional electrophoresis [reference compound]", "values": [{"measurement": "isoelectric point", "setting": "[3]", "value": "approx. 5.4"}, {"measurement": "isoelectric point", "setting": "[3]; listed as spot A", "value": 5.4}]}, {"molecule": "recombinant eIF5A (RCP): FLAG- and His-tagged human eIF5A collected from reoxygenation-conditioned PBS of transfected quail muscle cells; secreted form", "values": [{"measurement": "induction of apoptosis (TUNEL staining)", "setting": "Hela cells", "value": "induced apoptosis"}, {"measurement": "active form of caspase-3", "setting": "[4]", "value": "markedly increased"}, {"measurement": "nuclear chromatin by electron microscopy", "setting": "cardiac myocytes [5]", "value": "hypercondensation of nuclear chromatins"}, {"measurement": "cytosolic fractions of cytochrome c", "setting": "[6]", "value": "markedly increased"}, {"measurement": "induction of apoptosis (TUNEL staining)", "setting": "[7]", "value": "induced apoptosis"}, {"measurement": "induction of apoptosis (TUNEL staining)", "setting": "[8]", "value": "not induced until 72 hours"}, {"measurement": "translocation of the apoptosis-inducing factor (AIF) from the cytosol (mitochondria) to the nucleus", "setting": "[9]", "value": "induced translocation"}, {"measurement": "induction of apoptosis by Annexin-V staining", "setting": "[10]", "value": "further confirmed"}, {"measurement": "induction of apoptosis (TUNEL staining)", "setting": "[11]", "value": "induced apoptosis"}, {"measurement": "induction of apoptosis of cultured cardiac myocytes (TUNEL and cardiac myosin double staining)", "setting": "[2]", "value": "potently induced apoptosis"}]}, {"molecule": "recombinant mutant eIF5A (K50A) derived from RCP: K50A mutant eIF5A secreted into reoxygenation-conditioned PBS by transfected quail muscle cells", "values": [{"measurement": "induction of apoptosis of cultured cardiac myocytes (TUNEL and cardiac myosin double staining)", "setting": "[2]", "value": "only partially induced apoptosis"}]}, {"molecule": "secreted hypusinated eIF5A: hypusinated form of secreted eIF5A from RCP, spot B′", "values": [{"measurement": "isoelectric point", "setting": "[3]", "value": "approx. 5.4"}, {"measurement": "isoelectric point", "setting": "[3]; listed as spot B′", "value": 5.4}]}, {"molecule": "secreted unhypusinated eIF5: unhypusinated form of secreted eIF5A from RCP, spot A′", "values": [{"measurement": "isoelectric point", "setting": "[3]", "value": "approx. 5.3"}, {"measurement": "isoelectric point", "setting": "[3]; listed as spot A′", "value": 5.3}]}]}
